Data as given in patent publication US20040063662A1, “Selenophene anti-tumor agents” (priority 1996, published 2004).
Converted amounts (≈) assume the structure as drawn. “And” between values parts separate entries of the source, which are not always exact repeats. Equal values may be shown once. Read-outs that look alike come from different tables or passages of the source.

Experiments:
[1] = biological target: T1, 50:50 mixture of recombinant mouse PKCα and mouse PKCβ2; assay: Protein Kinase C (PKC) screening assay; type: biochemical; conditions: Inhibition of Protein Kinase C
T1 construct: The enzymes are expressed in Sf9 insect cells from recombinant baculovirus and partially purified on DEAE-cellulose and Sephacryl 200 gel filtration
Source text: The Protein Kinase C (PKC) screening assay utilized in the following experiments is similar to standard PKC assays used by many investigators. Its primary features are that 1) the assay utilizes a 50:50 mixture of recombinant mouse PKCα and mouse PKCβ2; 2) employs histone as phosphate-accepting substrate; and 3) the PKC enzymatic activity is activated with phosphatidylserine, TPA and low concentration of calcium, so that both calcium and TPA are somewhat limiting for the extent of activation. In this manner the assay is sensitive to inhibitors of PKC activation. A more detailed description of the assay is provided in the following paragraphs.
The recombinant PKC formulation is a mixture (equal parts by activity) of mouse PKCα and mouse PKCβ2. The enzymes are expressed in Sf9 insect cells from recombinant baculovirus and partially purified on DEAE-cellulose and Sephacryl 200 gel filtration. Sufficient PKC is added to each reaction to provide approximately 4 pmols phosphate transferred in 30 minute (per total reaction.) The reaction is linear over the time when 4 pmols of phosphate is transferred and the reaction remains linear well beyond this time frame.
The PKC screening assay is performed in 96 well polystyrene U bottom micro titer plates, in a total reaction volume of 50 ul. Solution manipulations are performed during the assay utilize a Rainin, motorized EDP-plus M8 eight-channel micropipettor.
In some cases 50% DMSO:water, water, or methanol is substituted (if essential) for the solvent. At least 25 μl of the highest concentration sample to be assayed is transferred to a well in a 96 well U-bottom polystyrene assay plate. Serial 5-fold or 10-fold dilutions (depending on the dose-range desired) are made using the EDP-plus M8 eight-channel pipettor in dilute mode and mixing by repipetting. Using the 8-channel pipettor, 2 μl of each dilution is transferred to the appropriate wells of the plate(s) to be used for each assay. Duplicate assays are performed for each dose, with each assay, allowing six wells (half the row) for three-dose assays, or 12 wells (the whole row) for six-dose assays. In general, extracts and fractions are assayed at three doses: 400, 40 an 4 ug/ml, while pure compounds are tested at six doses: 400, 80, 16, 3.2, 0.64, 0.128 ([…]).

[2] = test system: ras-transformed human bronchial epithelial cells (TBE); assay: Selective cytotoxicity microculture assay, ras-transformed bronchial epithelial cells; type: cell-based
[3] = test system: human renal carcinoma cells (A-498); assay: Selective cytotoxicity microculture assay, human renal carcinoma
[4] = as above; conditions: human, SCI (selectively cytotoxicity index), GI50 (RPTEC)/GI50 (A-498)
[5] = test system: normal human renal cells (RPTEC); assay: Selective cytotoxicity microculture assay, normal human renal cells; type: cell-based
[6] = In vivo activity of glycoside prodrug (preliminary); conditions: preliminary results
Source text: (§1) a. […] Scheme 8 illustrates a procedure utilized for the synthesis of glucoside, galactoside or, glucuronic acid analogs of α-terselenophene: [drawing 60]

[7] = In vitro activity of glycoside prodrug (preliminary); type: cell-based; conditions: preliminary results
Source text: as §1

[8] = Homo sapiens, Epithelial cell, read-out: GI50
[9] = Homo sapiens, A498, A-498 human renal carcinoma
[10] = Homo sapiens, RPTEC, read-out: GI50

Row | Structure (SMILES) | IC50 [1] | GI50 [2, 8] [µg/mL] | GI50 [3, 9] [µg/mL] | selectivity ratio [4] | GI50 [5, 10] [µg/mL] | also measured
1 | O=Cc1ccc(-c2ccc(-c3ccc(C=O)s3)[se]2)s1 [compound 675345] | 0.9 µg/mL (≈ 2.56 µM) | – | – | – | – | –
2 | c1c[se]c(-c2ccc(-c3ccc[se]3)s2)c1 [compound 676628] | 1 × 10^0 μg/ml | 100 (≈ 292 µM) | 80 (≈ 234 µM) | 5 | 400 (≈ 1170 µM) | –
3 | COc1cccc2c1C(=O)c1c(O)c3c(c(O)c1C2=O)C[C@@](O)(C(=O)CO)C[C@@H]3O[C@H]1C[C@H](N)[C@H](O)[C@H](C)O1 [compound 123127] | – | – | – | – | – | GI50 [2]: 0.03 µg/mL (≈ 0.0552 µM); GI50 ([3]; A-498 human renal carcinoma): 0.05 µg/mL (≈ 0.092 µM); SCI (selectively cytotoxicity index) ([3]; GI50 (RPTEC)/GI50 (A-498)): 1; GI50 [5]: 0.05 µg/mL (≈ 0.092 µM)
4 | c1csc(-c2ccc(-c3ccc[se]3)s2)c1 | – | – | – | – | – | melting point: 103 to 104 °C
5 | O=Cc1ccc(-c2ccc(-c3ccc[se]3)[se]2)[se]1 [compound 675244] | 1 × 10^0 μg/ml | – | – | – | – | –
6 | OCc1ccc(-c2ccc(-c3ccc[se]3)[nH]2)[se]1 [compound 676635] | 8 × 10^0 μg/ml | 20 (≈ 56.3 µM) | < 0.001 | > 1000 | 2 (≈ 5.63 µM) | –
7 | O=Cc1ccc(-c2ccc(-c3ccc(C=O)[se]3)[se]2)[se]1 [compound 675245] | 1 × 10^0 μg/ml | – | – | – | – | –
8 | c1c[se]c(-c2ccc(-c3ccc[se]3)[nH]2)c1 [compound 676633] | 6 × 10^0 μg/ml | 10 (≈ 30.8 µM) | 100 (≈ 308 µM) | < 1 | 20 (≈ 61.5 µM) | –
9 | OC[C@H]1O[C@@H](OCc2ccc(-c3ccc(-c4cccs4)s3)s2)[C@H](O)[C@@H](O)[C@@H]1O [β-D-glucoside of 2-hydroxymethyl-α-terthiophene] | – | – | – | – | – | in vivo activity [6]: retains; in vitro activity [7]: retains
10 | O=Cc1ccc(-c2ccc(-c3ccc[se]3)s2)[se]1 [compound 676629] | 0.2 µg/mL (≈ 0.54 µM) | – | – | – | – | –
11 | O=Cc1ccc(-c2ccc(-c3ccc(C=O)[se]3)s2)[se]1 [compound 676630] | 0.9 µg/mL (≈ 2.26 µM) | – | – | – | – | –
12 | O=Cc1ccc(-c2ccc(-c3ccc[se]3)[nH]2)[se]1 [compound 676634] | 0.8 µg/mL (≈ 2.27 µM) | – | – | – | – | GI50 [2]: 0.0003 µg/mL and 0.006 µg/mL; GI50 ([3]; A-498 human renal carcinoma): 0.0006 µg/mL and 0.003 µg/mL
13 | c1c[se]c(-c2ccc(-c3ccc[se]3)[se]2)c1 [compound 674973] | 7 × 10^0 μg/ml | 4 (≈ 10.3 µM) | 3 (≈ 7.71 µM) | 1 | 4 (≈ 10.3 µM) | –
14 | OCc1ccc(-c2ccc(-c3cccs3)[se]2)s1 [compound 675344] | 50 µg/mL (≈ 154 µM) | – | – | > 1000 | – | GI50 [2]: <10^−2 μg/ml and 7 × 10^−6 μg/ml; GI50 ([3]; A-498 human renal carcinoma): 3e-07 µg/mL and 6e-08 µg/mL
15 | O=Cc1ccc(-c2ccc(-c3cccs3)[se]2)s1 [compound 675346] | 0.5 µg/mL (≈ 1.55 µM) | – | – | – | – | –
16 | c1csc(-c2ccc(-c3cccs3)[se]2)c1 [compound 675347] | 1 × 10^0 μg/ml | 10 (≈ 33.9 µM) | 30 (≈ 102 µM) | < 1 | 20 (≈ 67.7 µM) | –
